Data set [1] concerns CDM5 cells (β-tcTet cells). Description: Cell membrane potential measured with the bis-oxonol assay. Format: cell-based. The method, then:
In order to test the bioefficacy of GLP-1, which was believed to be secreted by β-1081 cells, the supernatant of the 1081 cells were kept for 4 hours in 25 mM KRBH. CDM5 cells (a type of β-cTCtet cell) were then stimulated with this supernatant. Next, the effect of this stimulation in cell membrane potential was measured using the bis-oxonol assay.
Those skilled in the art will recognize that GLP-1 has the effect of depolarizing the cell membrane upon application. This depolarization is the result of the stimulatory effect of GLP-1 on cAMP, which, as discussed above, leads to increased insulin secretion. The increased insulin secretion is the result of both the enhanced closing of ATP sensitive potassium (K^+ ATP) channels in the membrane of the β-cell as well as the protein kinase A activation of distal exocytotic events.
The cells were allowed to equilibrate in 8 mM glucose and 400 μM Diazoxide for 600 seconds. At 200, 400, 600, 800, and 1000 seconds, 1, 2, 4, 6, and 8 nM GLP-1-gly8, respectively, were added to the medium.
In this experiment, the cells were equilibrated at 8 mM glucose and 400 μM of diazoxide for 600 seconds. At t=100 seconds, 100 nM of Exendine-(9-39) was added. […] At t=600 seconds, 20 μl of water was added as a dilution control.
Again, the cells were allowed to equilibrate at 8 mM glucose and 400 μM Diazoxide for 600 seconds. At 200 seconds, 24 μl of the supernatant of the GLP-1 secreting 1081 cells were added to the cells. […] At 1500 seconds, 24 μl of the supernatant was added.
Exendine (9-39) is an inhibitor of GLP-1 activity. […] In this experiment, the equilibration period lasted from time […]. At t=200 seconds, […] of Exendine (9-39) was added to the cells.

For data set [2] the following is noted: comparison of GLP-1-gly8 and wild type GLP-1; cited from earlier work.
The subject of data set [3] is diabetic mice implanted with encapsulated CDM3D cells. Description: In vivo evaluation of GLP-1-gly8 injected intraperitoneally in diabetic mice implanted with encapsulated CDM3D cells. An excerpt:
The effect observed in the control group can probably be attributed to the few remaining islets (β-cells) in the pancreas of the mice that remain functional following streptozocin treatment.

Here are results for 2 compounds from patent US20020025306A1, “Methods of increasing the glucose responsiveness of pancreatic ss-cells” (priority 2000, published 2002).

As for `CC1=NS(=O)(=O)c2cc(Cl)ccc2N1` [Diazoxide], the membrane potential entry in data set [1] (8 mM glucose and 400 μM Diazoxide, 2×10^6 cells, FIG. 6) was “maximum hyperpolarization”; in data set [1] (400 μm Diazoxide at t=2800 s, FIG. 2), “maximum depolarization”.
Regarding “GLP-1-gly8: commercial GLP-1-gly8, given rather than wild-type GLP-1; half-life longer than wild type GLP-1 (HDEFERHGEGTFTSDVSSYLEGQAAKEFIAWLVKGRG; Glucagon-like peptide 1; UniProt P01275 92-128, looked up, variant A8G)”, the membrane potential entry in data set [1] (8 nM GLP-1-gly8, cells in 8 mM glucose and 400 μM Diazoxide, FIG. 3) is recorded as “saturation of the effect”; in data set [1] (1, 2, 4, 6 nM GLP-1-gly8, cells in 8 mM glucose and 400 μM Diazoxide, FIG. 3), “depolarization of the cell membrane”; in data set [1] (GLP-1-gly8 after exposure of the cells to Exendine-(9-39), FIG. 4), “no response was observed”. Further, in data set [2], the half-life result was “longer than the half-life of wild type GLP-1”. Further, in data set [3] (0.1 nmol IP at t=0, streptozocin-diabetic mice implanted IP with encapsulated CDM3D cells, first two hours, FIG. 1), the “glycemia after injection, test group” value is reported as “large decrease in glycemia”. Also, in data set [3] (0.1 nmol IP at t=0, streptozocin-diabetic non-implanted mice, FIG. 1), the “glycemia after injection, control group” value is recorded as “smaller (and shorter decrease) in glycemia”. For the same compound, the “loss of the effect on glycemia in the test group” value in data set [3] (0.1 nmol IP, implanted diabetic mice) turned out to be 120 min.
